A value given as a limit tells only on which side of the number the result lay.

Assay [1] has as its target recombinant human PKR enzyme (Homo sapiens (Human), UniProt P30613). The assay can be described thus: Pyruvate kinase (PKR) activity experiment. Type of assay: biochemical. The settings on record: activation of recombinant human PKR enzyme. Here is the method:
• 1). A recombinant human PKR enzyme solution was formulated at a concentration of 60 ng/well (a 20 μL reaction system), and 5 μL of the solution was added into each well of a black transparent bottom 384-well plate. • 2). Compound solutions were formulated at different concentrations, with the final concentrations of 1000/300/100 nM (containing 1% DMSO). Each 5 μL of the compound solution was added into the plate in item 3.1 and mixed well. The plate was incubated at room temperature for 10 min. • 3). A reaction system was formulated according to the instructions of a kit (as shown in the table below), and 10 μL of the reaction system was added into each well of the 384-well plate, and mixed uniformly with the solution in item 3.2.
• 4). The 384-well plate was placed on a microplate reader to detect the fluorescence value at 540/590 nm, where the value was read every 2 minutes and the detection was conducted continuously for 1 hour. • 5). The Slope value within the detection time was calculated, and the 0.1% DMSO well was used as a control well to calculate a compound activation rate.
[formula] • 6). Fitting dose-effect curve
With the log value of the compound concentration as the X axis and the percentage activation rate as the Y axis, a dose-effect curve was fitted with the log(agonist) vs. response-variable slope of the analysis software GraphPad Prism 5, and the AC50 value of the activity of each compound against PKR was obtained.

Assay [2] concerns the target USP9X (Homo sapiens (Human), UniProt Q93008). The assay can be described thus: USP9X enzyme activity experiment. The assay is classed as biochemical. The note with it: inhibition of USP9X enzyme, Ub-Rho 110 substrate. As for the experimental part: • 1). A 1× analysis buffer was formulated, consisting of a modified Tris buffer (pH 7.5). • 2). Compound solutions of different concentrations were formulated with final concentrations of 3,000/1,000/300/100/30/10/3/1 nM (containing 1% DMSO), and added into a 384-well plate. • 3). A USP9X enzyme solution was formulated with the 1× analysis buffer. • 4). 10 μL of the USP9X enzyme solution was added into the 384-well plate, and incubated with the compounds at room temperature for 1 h. • 5). Rhodamine 110 Protein was added into the 1× analysis buffer to formulate a substrate working solution. • 6). 10 μL of the substrate solution was added into each reaction well, centrifuged for 30 s, and mixed uniformly for 30 s. • 7). The 384-well plate was placed on a microplate reader for detection, with an excitation wavelength of 480 nm and an emission wavelength of 540 nm. Test was conducted for 30 minutes and the data was collected. • 8. Fitting the dose-effect curve.
With the log value of the compound concentration as the X axis and the percentage inhibition rate as the Y axis, a dose-effect curve was fitted with the log(inhibitor) vs. response-variable slope of the analysis software GraphPad Prism 5, and the IC50 value of the activity of each compound against USP9X was obtained.

USP9X, sequence (Q93008 whole entry): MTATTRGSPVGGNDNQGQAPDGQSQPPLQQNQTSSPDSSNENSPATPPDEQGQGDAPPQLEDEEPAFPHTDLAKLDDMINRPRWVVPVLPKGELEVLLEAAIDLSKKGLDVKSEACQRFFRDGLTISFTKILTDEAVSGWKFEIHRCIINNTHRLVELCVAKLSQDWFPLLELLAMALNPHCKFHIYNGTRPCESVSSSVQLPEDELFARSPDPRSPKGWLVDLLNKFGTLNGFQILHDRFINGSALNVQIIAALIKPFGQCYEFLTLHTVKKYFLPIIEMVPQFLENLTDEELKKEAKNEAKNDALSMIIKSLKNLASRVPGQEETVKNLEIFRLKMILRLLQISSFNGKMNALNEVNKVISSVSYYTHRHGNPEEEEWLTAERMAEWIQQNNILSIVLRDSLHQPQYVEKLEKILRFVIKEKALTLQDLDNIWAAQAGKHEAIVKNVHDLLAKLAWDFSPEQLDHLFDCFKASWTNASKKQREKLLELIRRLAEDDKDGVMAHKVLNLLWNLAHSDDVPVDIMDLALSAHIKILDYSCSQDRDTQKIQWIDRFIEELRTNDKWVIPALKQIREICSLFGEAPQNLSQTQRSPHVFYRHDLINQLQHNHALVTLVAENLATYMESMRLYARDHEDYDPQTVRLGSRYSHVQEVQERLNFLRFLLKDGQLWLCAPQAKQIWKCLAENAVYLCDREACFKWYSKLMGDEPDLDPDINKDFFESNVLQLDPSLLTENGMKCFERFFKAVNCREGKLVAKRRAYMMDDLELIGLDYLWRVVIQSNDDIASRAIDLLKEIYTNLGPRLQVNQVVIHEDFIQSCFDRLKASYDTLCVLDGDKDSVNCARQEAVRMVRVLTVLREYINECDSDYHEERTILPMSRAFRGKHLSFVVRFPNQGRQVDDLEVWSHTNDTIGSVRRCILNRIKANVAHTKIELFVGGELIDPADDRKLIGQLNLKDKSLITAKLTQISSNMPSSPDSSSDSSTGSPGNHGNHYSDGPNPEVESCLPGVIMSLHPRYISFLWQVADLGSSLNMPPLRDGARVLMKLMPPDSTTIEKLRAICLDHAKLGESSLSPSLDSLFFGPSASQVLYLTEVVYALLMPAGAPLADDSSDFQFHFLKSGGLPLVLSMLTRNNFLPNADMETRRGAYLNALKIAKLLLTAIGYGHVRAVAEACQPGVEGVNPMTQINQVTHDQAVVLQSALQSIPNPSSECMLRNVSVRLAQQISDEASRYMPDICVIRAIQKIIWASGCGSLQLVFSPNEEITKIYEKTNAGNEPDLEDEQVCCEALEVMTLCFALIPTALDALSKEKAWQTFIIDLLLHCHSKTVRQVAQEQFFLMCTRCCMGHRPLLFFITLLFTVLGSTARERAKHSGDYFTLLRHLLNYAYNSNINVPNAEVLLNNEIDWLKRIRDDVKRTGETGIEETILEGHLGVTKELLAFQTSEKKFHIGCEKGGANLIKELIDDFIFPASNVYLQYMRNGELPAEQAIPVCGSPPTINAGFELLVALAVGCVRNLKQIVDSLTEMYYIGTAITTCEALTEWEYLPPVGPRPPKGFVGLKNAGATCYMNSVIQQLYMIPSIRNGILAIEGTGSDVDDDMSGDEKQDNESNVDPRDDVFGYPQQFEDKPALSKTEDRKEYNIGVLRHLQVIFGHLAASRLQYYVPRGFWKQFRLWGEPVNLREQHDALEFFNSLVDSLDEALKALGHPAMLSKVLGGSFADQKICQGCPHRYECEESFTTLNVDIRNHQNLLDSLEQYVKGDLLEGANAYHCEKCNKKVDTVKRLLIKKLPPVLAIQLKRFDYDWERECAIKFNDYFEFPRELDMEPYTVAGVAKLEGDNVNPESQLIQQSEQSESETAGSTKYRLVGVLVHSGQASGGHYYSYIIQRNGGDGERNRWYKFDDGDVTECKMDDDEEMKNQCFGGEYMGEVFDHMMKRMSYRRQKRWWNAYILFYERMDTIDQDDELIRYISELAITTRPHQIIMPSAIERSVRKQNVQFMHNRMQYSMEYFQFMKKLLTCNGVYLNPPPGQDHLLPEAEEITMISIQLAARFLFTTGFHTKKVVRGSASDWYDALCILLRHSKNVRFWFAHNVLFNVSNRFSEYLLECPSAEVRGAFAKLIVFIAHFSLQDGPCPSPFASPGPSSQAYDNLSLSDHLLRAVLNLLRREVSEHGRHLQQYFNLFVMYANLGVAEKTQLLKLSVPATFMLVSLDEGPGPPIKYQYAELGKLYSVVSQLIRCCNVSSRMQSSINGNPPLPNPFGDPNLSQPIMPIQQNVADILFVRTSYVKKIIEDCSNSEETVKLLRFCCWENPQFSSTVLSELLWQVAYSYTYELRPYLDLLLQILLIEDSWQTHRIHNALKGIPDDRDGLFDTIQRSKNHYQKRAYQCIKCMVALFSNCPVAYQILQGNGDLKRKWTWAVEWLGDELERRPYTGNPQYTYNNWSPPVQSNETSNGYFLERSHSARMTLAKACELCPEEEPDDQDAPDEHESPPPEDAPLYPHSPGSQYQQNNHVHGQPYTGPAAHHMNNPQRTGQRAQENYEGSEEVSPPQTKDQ
recombinant human PKR enzyme, sequence (P30613 whole entry): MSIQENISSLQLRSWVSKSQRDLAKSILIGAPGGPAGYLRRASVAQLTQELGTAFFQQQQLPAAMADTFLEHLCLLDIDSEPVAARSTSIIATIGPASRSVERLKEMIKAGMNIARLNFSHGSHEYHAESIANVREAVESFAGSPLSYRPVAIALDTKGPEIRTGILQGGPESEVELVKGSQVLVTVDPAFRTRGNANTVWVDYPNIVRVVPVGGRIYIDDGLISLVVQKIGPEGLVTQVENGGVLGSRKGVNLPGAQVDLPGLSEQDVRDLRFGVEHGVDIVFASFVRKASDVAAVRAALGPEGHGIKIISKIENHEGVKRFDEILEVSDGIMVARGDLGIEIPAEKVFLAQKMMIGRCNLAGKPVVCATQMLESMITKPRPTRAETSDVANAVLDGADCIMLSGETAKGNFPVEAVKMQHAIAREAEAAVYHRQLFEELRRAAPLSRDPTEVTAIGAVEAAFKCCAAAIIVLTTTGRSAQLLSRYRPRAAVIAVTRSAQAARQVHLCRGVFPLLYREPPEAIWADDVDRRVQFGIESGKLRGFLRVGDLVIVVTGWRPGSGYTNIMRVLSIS

`O=C([C@H](CO)c1ccccc1)N1CC(=C2CN(S(=O)(=O)c3ccc4ncsc4c3)C2)C1` [Compound 3, (S)-1-(1′-(benzo[d]thiazol-6-ylsulfonyl)-1′,4′-dihydro-2H,2′H-[3,3′-diazetidinylidene]-1(4H)-yl)-3-hydroxy-2-phenylpropan-1-one]: the AC50 (usually the concentration at which the activity in the assay is half-maximal) in assay [1] is less than 0.1 µM. In addition, in assay [2], the IC50 (commonly the concentration needed to halve the response being measured) is 0.3 to 1 µM.

With `O=C([C@H](CO)c1ccccc1)N1CC(=C2CN(S(=O)(=O)c3ccccn3)C2)C1` [Compound 4, (S)-3-hydroxy-2-phenyl-1-(1′-(pyridin-2-ylsulfonyl)-1′,4′-dihydro-2H,2′H-[3.3′-diazetidinylidene]-1(4H)-yl)propan-1-one], the AC50 in assay [1] lay within 0.101 to 0.3 µM. The compound also returned an IC50 in assay [2] of 0.101 to 0.3 µM.

Turning to `O=C([C@H](CO)c1ccccc1)N1CC(=C2CN(S(=O)(=O)c3cnc4c(c3)OCCO4)C2)C1` [Compound 1, (S)-1-(1′-((2,3-dihydro-[1,4]dioxino[2,3-b]pyridin-7-yl)sulfonyl)-1′,4′-dihydro-2H,2′H-[3,3′-diazetidinylidene]-1(4H)-yl)-3-hydroxy-2-phenylpropan-1-one], the AC50 in assay [1] lay within 0.3 to 1 µM. This compound also showed a half-inhibitory concentration (IC50) in assay [2] of less than 0.1 µM.

`O=C(C(CO)c1ccccc1)N1CC(=C2CN(S(=O)(=O)c3ccc(OC(F)F)cc3)C2)C1` (stereo not drawn) [Compound 6, 1-(1′-((4-(difluoromethoxy)phenyl)sulfonyl)-1′,4′-dihydro-2H,2′H-[3,3′-diazetidinylidene]-1(4H)-yl)-3-hydroxy-2-phenylpropan-1-one] had a concentration for half-maximal inhibition (IC50) in assay [2] of 0.101 to 0.3 µM.

For `Cn1cnc2ccc(S(=O)(=O)N3CC(=C4CN(C(=O)[C@H](CO)c5ccccc5)C4)C3)cc21` [Compound 63, (S)-3-hydroxy-1-(1′-((1-methyl-1H-benzimidazol-6-yl)sulfonyl)-1′,4′-dihydro-2H,2′H-[3,3′-diazetidinylidene]-1(4H)-yl)-2-phenylpropan-1-one], the AC50 in assay [1] fell in the range of 0.101 to 0.3 µM.

Consider `O=C1COc2ccc(S(=O)(=O)N3CC(=C4CN(C(=O)[C@H](CO)c5ccccc5)C4)C3)cc2N1` [Compound 40, (S)-6-((1′-(3-hydroxy-2-phenylpropionyl)-1′,4′-dihydro-2H,2′H-[3,3′-diazetidinylidene]-1(4H)-yl)sulfonyl)-2H-benzo[b][1,4]oxazine-3(4H)-one], for which, in assay [1], the half-maximal activity concentration (AC50) was in the range of 0.101 to 0.3 µM.

On to `COc1ccc(S(=O)(=O)N2CC(=C3CN(C(=O)[C@H](CO)c4ccccc4)C3)C2)nc1` [Compound 67, (S)-3-hydroxy-1-(1′-((5-methoxypyridin-2-yl)sulfonyl)-1′,4′-dihydro-2H,2′H-[3,3′-diazetidinylidene]-1(4H)-yl)-2-phenylpropan-1-one], for which, in assay [1], the AC50 was less than 0.1 µM.

For `COc1ccc(S(=O)(=O)N2CC(=C3CN(C(=O)[C@@H](CO)c4ccc(F)cc4F)C3)C2)nc1` [Compound 88, (R)-2-(2,4-difluorophenyl)-3-hydroxy-1-(1′-((5-methoxypyridin-2-yl)sulfonyl)-1′,4′-dihydro-2H,2′H-[3,3′-diazetidinylidene]-1(4H)-yl)propan-1-one], the AC50 in assay [1] was in the range of 0.3 to 1 µM.

In the case of `CN1CCOc2ccc(S(=O)(=O)N3CC(=C4CN(C(=O)[C@H](CO)c5ccccc5)C4)C3)cc21` [Compound 39, (S)-3-hydroxy-1-(1′-((4-methyl-3,4-dihydro-2H-benzo[b][1,4]oxazin-6-yl)sulfonyl)-1′,4′-dihydro-2H,2′H-[3,3′-diazetidinylidene]-1(4H)-yl)-2-phenylpropan-1-one], the concentration at half-maximal activity (AC50) in assay [1] is less than 0.1 µM.

Take `O=C(C(CO)c1ccc(F)cc1)N1CC(=C2CN(S(=O)(=O)c3ccc(OC(F)F)cc3)C2)C1` (stereo not drawn) [Compound 16, 1-(1′-((4-(difluoromethoxy)phenyl)sulfonyl)-1′,4′-dihydro-2H,2′H-[3,3′-diazetidinylidene]-1(4H)-yl)-2-(4-fluorophenyl)-3-hydroxypropan-1-one]: in assay [1], the half-maximal activity concentration (AC50) was in the range of 0.101 to 0.3 µM.

For the compound `COc1ccc(S(=O)(=O)N2CC(=C3CN(C(=O)[C@H](CO)c4ccccc4)C3)C2)cc1` [Compound 5, (S)-3-hydroxy-1-(1′-((4-methoxyphenyl)sulfonyl)-1′,4′-dihydro-2H,2′H-[3,3′-diazetidinylidene]-1(4H)-yl)-2-phenylpropan-1-one], the AC50 in assay [1] is less than 0.1 µM. In assay [2], the half-inhibitory concentration (IC50) was less than 0.1 µM.

`O=C(C(CO)c1cc(F)cc(Cl)c1)N1CC(=C2CN(S(=O)(=O)c3ccccn3)C2)C1` (stereo not drawn) [Compound 86, 2-(3-chloro-5-fluorophenyl)-3-hydroxy-1-(1′-(pyridin-2-ylsulfonyl)-1′,4′-dihydro-2H,2′H-[3,3′-diazetidinylidene]-1(4H)-yl)propan-1-one]: the AC50 in assay [1] lay within 0.3 to 1 µM.

`O=C(C(CO)c1cccnc1)N1CC(=C2CN(S(=O)(=O)c3ccc4ncsc4c3)C2)C1` (stereo not drawn) [Compound 48, 1-(1′-(benzo[d]thiazol-6-ylsulfonyl)-1′,4′-dihydro-2H,2′H-[3,3′-diazetidinylidene]-1(4H)-yl)-3-hydroxy-2-(pyridin-3-yl)propan-1-one]: in assay [1], the AC50 lay in the range of 0.101 to 0.3 µM.

In the case of `O=C([C@H](CO)c1ccccc1)N1CC(=C2CN(S(=O)(=O)c3ccc4c(c3)OCCO4)C2)C1` [Compound 2, (S)-1-(1′-((2,3-dihydrobenzo[b][1,4]dioxin-6-yl)sulfonyl)-1′,4′-dihydro-2H,2′H-[3,3′-diazetidinylidene]-1(4H)-yl)-3-hydroxy-2-phenylpropan-1-one], in assay [1], the AC50 was less than 0.1 µM. This compound gave a half-maximal inhibitory concentration (IC50) in assay [2] of less than 0.1 µM.

As for `CN1CCN(c2cccc(C(O)C(=O)N3CC(=C4CN(S(=O)(=O)c5ccc6ncsc6c5)C4)C3)c2)CC1` (stereo not drawn) [Compound 43, 1-(1′-(benzo[d]thiazol-6-ylsulfonyl)-1′,4′-dihydro-2H,2′H-[3,3′-diazetidinylidene]-1(4H)-yl)-2-hydroxy-2-(3-(4-methylpiperazin-1-yl)phenyl)ethan-1-one], in assay [1], the concentration at half-maximal activity (AC50) lay within 0.3 to 1 µM.

As to `CNCC(C(=O)N1CC(=C2CN(S(=O)(=O)c3ccc4c(c3)OCCO4)C2)C1)c1ccc(F)c(Cl)c1OC` (stereo not drawn) [Compound 28], the half-maximal activity concentration (AC50) in assay [1] was in the range of 0.3 to 1 µM.

(Values after patent publication US20250145635A1, “COMPOUND CONTAINING BIS(AZANYLYLIDENE) SULFONYL STRUCTURE AND USE THEREOF IN MEDICINE” (SCINNOHUB PHARMACEUTICAL CO., LTD., priority 2021, published 2025).)
